# Laboratory results published in US20210275692A1, “SOLUTION COMPRISING FLUORESCENT DYE AS FIDUCIAL MARKER” (DANMARKS TEKNISKE UNIVERSITET, priority 2018, published 2021).
# How the values were obtained:
# [1] = UVvis maximum absorption wavelength of selected dyes (Table 1); format: physicochemical; details: source not stated
# [2] = Spectroscopic characterization of SSIB-Cy7.5 in SAIB or LOIB markers; format: physicochemical
Compound,UVvis maximum [1],other results
"CCC1=C(CC)c2cc3[nH]c(cc4nc(cc5[nH]c(cc1n2)c(CC)c5CC)C(CC)=C4CC)c(CC)c3CC [2,3,7,8,12,13,17,18-Octaethyl-21H,23H-porphine]",401 nm,–
Cy7-alkyne,750 nm,–
"CCCCOc1ccc(OCCCC)c2c1-c1nc3nc(nc4[nH]c([nH]c5nc(nc-2n1)-c1c(OCCCC)ccc(OCCCC)c1-5)c1c(OCCCC)ccc(OCCCC)c41)-c1c(OCCCC)ccc(OCCCC)c1-3 [1,4,8,11,15,18,22,25-Octabutoxy-29H,31H-phthalocyanine]",762 nm,–
6′-(Cyanine 7.5)-Isobutyric Sucrose [SSIB-Cy7.5],–,broad emission peak centre ([2]; 0.01% w/w in LOIB:xSAIB:EtOH:D&Cv2): 845 nm; dye concentration up to which emission intensity increased (then self-quenching) ([2]; SAIB:xSAIB:EtOH 70:10:20): 0.003 % w/w
"CCCCCCCCOc1cc2c(cc1OCCCCCCCC)-c1nc-2nc2[nH]c(nc3nc(nc4[nH]c(n1)c1cc(OCCCCCCCC)c(OCCCCCCCC)cc41)-c1cc(OCCCCCCCC)c(OCCCCCCCC)cc1-3)c1cc(OCCCCCCCC)c(OCCCCCCCC)cc21 [2,3,9,10,16,17,23,24-Octakis(octyloxy)-29H,31H-phthalocyanine]",701 nm,–
"2,11,20,29-Tetra-tert-butyl-2,3-naphthalocyanine",712 nm,–
Cc1ccc(Nc2ccc(O)c3c2C(=O)c2ccccc2C3=O)cc1 [D&Cv2],–,"absorption peak ([2]; UVvis in LOIB:xSAIB:EtOH:D&Cv2, 0.1% w/w D&Cv2, 0.01% w/w SSIB-Cy7.5): 590 nm"
C#CCNC(=O)CCCCCN1C(=CC=CC=CC2=[N+](C)c3ccccc3C2(C)C)C(C)(C)c2ccccc21.[Cl-] [Cy5-alkyne],646 nm,–
"C1=Cc2nc1c(-c1ccccc1)c1ccc([nH]1)c(-c1ccccc1)c1nc(c(-c3ccccc3)c3ccc([nH]3)c2-c2ccccc2)C=C1 [5,10,15,20-Tetraphenyl-21H,23H-porphine]",514 nm,–
C#CCNC(=O)CCCCCN1C(=CC=CC=CC2=[N+](C)c3ccc4ccccc4c3C2(C)C)C(C)(C)c2c1ccc1ccccc21.[Cl-] [Cy5.5-alkyne],684 nm,–
"CCCCOc1c2c(c(OCCCC)c3ccccc13)-c1nc-2nc2[nH]c(nc3nc(nc4[nH]c(n1)c1c(OCCCC)c5ccccc5c(OCCCC)c41)-c1c-3c(OCCCC)c3ccccc3c1OCCCC)c1c(OCCCC)c3ccccc3c(OCCCC)c21 [5,9,14,18,23,27,32,36-Octabutoxy-2,3-naphthalocyanine]",784 nm,–
"CC(C)(C)c1ccc2c(c1)-c1nc3nc(nc4[nH]c(nc5[nH]c(nc-2n1)c1cc(C(C)(C)C)ccc51)c1cc(C(C)(C)C)ccc41)-c1ccc(C(C)(C)C)cc1-3 [2,9,16,23-Tetra-tert-butyl-29H,31H-phthalocyanine]",696 nm,–

# More lines, main results first:
UVvis maximum [1],Compound,other results
698 nm,c1ccc2c(c1)-c1nc-2nc2[nH]c(nc3nc(nc4[nH]c(n1)c1ccccc41)-c1ccccc1-3)c1ccccc21 [Phthalocyanine],–
788 nm,C#CCNC(=O)CCCCCN1/C(=C/C=C2C=C(/C=C/C3=[N+](C)c4ccc5ccccc5c4C3(C)C)CCC/2)C(C)(C)c2c1ccc1ccccc21.[Cl-] [Cy7.5-alkyne],–
